Each block holds one compound with its values, some of them ahead of it.
Columns and labels:
[1] = target: T1, Platelet glycoprotein VI (Homo sapiens) (UniProt Q9HCN6); settings: Plasma, filed as modulator, time 15.0 min
T1 sequence (whole entry): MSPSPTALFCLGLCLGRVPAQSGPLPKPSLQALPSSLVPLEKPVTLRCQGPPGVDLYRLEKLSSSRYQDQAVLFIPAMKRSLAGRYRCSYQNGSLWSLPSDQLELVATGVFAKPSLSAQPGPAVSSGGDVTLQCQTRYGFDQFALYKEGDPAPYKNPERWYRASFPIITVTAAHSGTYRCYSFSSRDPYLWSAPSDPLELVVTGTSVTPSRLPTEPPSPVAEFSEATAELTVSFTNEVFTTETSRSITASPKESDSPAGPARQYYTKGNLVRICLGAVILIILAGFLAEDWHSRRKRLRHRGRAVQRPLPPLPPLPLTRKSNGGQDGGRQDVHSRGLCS

[2] = target: T2, Platelet glycoprotein VI (Homo sapiens, UniProt Q9HCN6); test: Binding affinity to recombinant GP6 (unknown origin) at protein to compound ratio of 1 : 1 to 1 : 10 by 2D 15N-1H TROSY-HSQC NMR spectroscopy
T2 sequence (Q9HCN6 whole entry): T1 sequence (whole entry)

[3] = target: T3, Thromboxane A2 receptor (Homo sapiens) (UniProt P21731); test: Modulation of TxA2 receptor in human platelet suspension assessed as lowest concentration that reduced U46619-induced platelet aggregation preincubated for 5 min followed by U46619 stimulation by light transmission aggregometry; format: tissue-based; settings: filed as modulator
T3 sequence (whole entry): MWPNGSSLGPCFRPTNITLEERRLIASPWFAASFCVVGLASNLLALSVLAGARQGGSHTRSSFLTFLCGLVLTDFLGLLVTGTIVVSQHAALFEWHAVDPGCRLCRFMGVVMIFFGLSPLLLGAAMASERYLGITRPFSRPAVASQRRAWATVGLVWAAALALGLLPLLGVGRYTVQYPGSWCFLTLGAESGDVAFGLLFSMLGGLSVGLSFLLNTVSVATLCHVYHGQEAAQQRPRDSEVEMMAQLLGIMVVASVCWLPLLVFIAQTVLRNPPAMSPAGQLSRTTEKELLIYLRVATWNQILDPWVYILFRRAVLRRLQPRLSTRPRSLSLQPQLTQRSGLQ

[4] = Inhibition of ADP-stimulated human platelet aggregation assessed as ADP light transmission at 50 uM preincubated for 5 min followed by ADP stimulation by light transmission aggregometry (reference value: 62 +/- 3%); format: functional; set-up: scale not given: the % may be the effect or the level left
[5] = target: T3, Thromboxane A2 receptor (Homo sapiens); test: Inhibition of [3H]-U46619 binding to TxA2 receptor in human platelet suspension at 0.3 uM incubated for 30 mins by liquid scintillation counting method relative to control; format: tissue-based
[6] = Inhibition of ADP-induced platelet aggregation in rabbit platelet suspension preincubated for 10 mins followed by ADP stimulation by turbidimetric method; format: functional, tissue-based; settings: Oryctolagus cuniculus
[7] = Inhibition of arachidonic acid-induced platelet aggregation in rabbit platelet suspension preincubated for 10 mins followed by AA stimulation by turbidimetric method; format: functional, tissue-based; settings: Oryctolagus cuniculus
[8] = Inhibition of PAF-induced platelet aggregation in rabbit platelet suspension preincubated for 10 mins followed by PAF stimulation by turbidimetric method; format: functional, tissue-based; settings: Oryctolagus cuniculus
[9] = Modulation of GP6/FcRgamma in human platelet-rich plasma assessed as reduction in convulxin-induced platelet aggregation
[10] = target: T2, Platelet glycoprotein VI; test: Modulation of GP6 in human platelets assessed as reduction in convulxin-induced P-selectin expression preincubated for 20 mins followed by convulxin stimulation and measured after 1 min by Western blot analysis; format: tissue-based
[11] = Modulation of GP6 in porcine platelet-rich plasma assessed as reduction in convulxin-induced platelet aggregation; format: tissue-based; settings: Sus scrofa
[12] = Inhibition of collagen-induced platelet aggregation in human platelet suspension preincubated for 10 mins followed by collagen stimulation by light transmission-based assay; format: functional, tissue-based
[13] = Antagonist activity at GP6 in human platelet assessed as reduction in CRP-induced platelet-aggregation preincubated for 60 secs followed by […] by light transmission aggregometry
[14] = target: T2, Platelet glycoprotein VI; test: Binding affinity to human platelet lysate GP6 at 0.1 uM by surface plasmon resonance analysis; format: subcellular
[15] = Inhibition of human platelet adhesion to immobilised CRP-XL at 1 umol/L preincubated for 4 mins followed by CRP-XL addition and measured after 45 mins relative to control; format: functional; settings: 49 min, dose 1 µmol/L
[16] = Inhibition of human platelet lamellipodia formation on CRP-XL 1 umol/L preincubated for 4 mins followed by CRP-XL addition and measured after 45 mins (reference value: 69%); format: functional; settings: dose 1 µmol/L, time 49 min, at 1 µM
[17] = Inhibition of collagen-induced platelet aggregation in human platelet suspension preincubated for 3 mins followed by collagen stimulation and measured after 6 mins by lumi-aggregometry; format: functional, tissue-based
[18] = target: T2, Platelet glycoprotein VI; test: Binding affinity to human platelet lysate GP6 at 100 uM by surface plasmon resonance analysis; format: subcellular
[19] = Inhibition of ADP-induced platelet aggregation in human platelet suspension preincubated for 3 mins followed by […] and measured after 6 mins by lumi-aggregometry; format: functional, tissue-based
[20] = Inhibition of arachidonic acid-induced platelet aggregation in human platelet suspension preincubated for 3 mins followed by […] and measured after 6 mins by lumi-aggregometry; format: functional, tissue-based
[21] = target: T3, Thromboxane A2 receptor (Homo sapiens); test: Inhibition of [3H]-U46619 binding to TxA2 receptor in human platelet suspension at 0.7 uM incubated for 30 mins by liquid scintillation counting method relative to control; format: tissue-based
[22] = Inhibition of collagen-induced human platelet aggregation preincubated for 20 mins followed by collagen stimulation and measured for 10 mins by aggregometry; format: functional, tissue-based

Compound: CCCCc1nc(Cl)c(C=O)n1Cc1ccc(-c2ccccc2-c2nn[nH]n2)cc1
- MEC [1]: 500 µM

Compound: c1ccc(CCOc2ccc(-c3ccccc3-c3nn[nH]n3)cc2)cc1
- Kd [2]: 52 µM

Compound: CCCCC1=NC2(CCCC2)C(=O)N1Cc1ccc(-c2ccccc2-c2nnn[nH]2)cc1 [IRBESARTAN]
- MEC [3]: 0.5 µM
- Activity [4]: 38%
- inhibition [5]: 50%

Compound: CCOc1nc2cccc(C(=O)O)c2n1Cc1ccc(-c2ccccc2-c2nnn[nH]2)cc1
- Activity [4]: 60%

Compound: Cc1ccccc1-c1nn[nH]n1
- Kd [2]: 1100 µM

Compound: CCCCC(=O)N(Cc1ccc(-c2ccccc2-c2nnn[nH]2)cc1)[C@H](C(=O)O)C(C)C
- Kd [2]: 100 µM
- MEC [3]: 50 µM
- Activity [4]: 53%

Compound: C=C1C(=O)[C@@]23[C@H](O)C[C@@H]4C(C)(C)C(=O)CC[C@@]4(C)[C@@H]2CC[C@@H]1[C@H]3O [GLAUCOCALYXIN A]
- IC50 [6]: 4.4 µM
- IC50 [7]: 14.1 µM
- IC50 [8]: 13.7 µM

Compound: CCCc1nc(C(C)(C)O)c(C(=O)O)n1Cc1ccc(-c2ccccc2-c2nnn[nH]2)cc1 [OLMESARTAN]
- Kd [2]: 300 µM

Compound: O=S(=O)(c1ccccc1)N(CC(F)(F)F)c1ccc(C(O)(C(F)(F)F)C(F)(F)F)cc1 [T091317]
- IC50 [12]: > 0.05 µM

Compound: O=C(O)c1ccccc1-c1ccccc1
- Kd [2]: 1500 µM

Compound: C=CC(=O)N1CCC[C@@H](n2nc(-c3ccc(Oc4ccccc4)cc3)c3c(N)ncnc32)C1 [IBRUTINIB]
- inhibition at 1 µM [15]: 70%
- inhibition (INH) [16]: 11%

Compound: O=C(O)Cc1cccc(OCCCN(Cc2cccc(C(F)(F)F)c2Cl)CC(c2ccccc2)c2ccccc2)c1
- IC50 [12]: 0.03 µM

Compound: H-YSDTDWLYFSTS-OH
- Kd [2]: 57 µM

Compound: CCCc1nc2c(C)cc(-c3nc4ccccc4n3C)cc2n1Cc1ccc(-c2ccccc2C(=O)O)cc1
- MEC [3]: 5 µM
- Activity [4]: 48%

Compound: CCCCc1nc(Cl)c(CO)n1Cc1ccc(-c2ccccc2-c2nnn[nH]2)cc1 [LOSARTAN]
- inhibition [21]: 50%
- MEC [3]: 0.5 µM
- Activity [4]: 39%
- MEC [1]: 500 µM

Compound: C/C(O)=C(\C#N)C(=O)Nc1cc(Br)ccc1Br
- IC50 [22]: 2.8 µM

Other lines, results leading:

- Kd [2]: 360 µM
Compound: c1ccc(-c2ccccc2-c2nn[nH]n2)cc1

- IC50 [9]: 2.5 µM
- IC50 [10]: 0.048 µM
- IC50 [11]: 0.35 µM
Compound: Cc1cccc(Nc2nc(N[C@@H]3CCCC[C@@H]3N)ncc2C(N)=O)c1

- IC50 [13]: 35 µM
Compound: CN(C)CCCSc1ccccc1NC(=O)/C=C/c1ccccc1 [CINANSERIN]

- Kd [14]: 0.0411 µM
Compound: NCCCC(=O)O [GAMMA-AMINOBUTYRIC ACID]

- Kd [2]: 850 µM
Compound: c1ccc(CCCCOc2ccc(-c3ccccc3-c3nn[nH]n3)cc2)cc1

- IC50 [17]: 0.6 µM
- Kd [18]: 289 µM
Compound: C=CCc1ccc(O)c(-c2ccc(O)c(CC=C)c2)c1 [HONOKIOL]

- IC50 [17]: 5.8 µM
- IC50 [19]: 6.2 µM
- IC50 [20]: 6.8 µM
Compound: CC(C)=CCC/C(C)=C/C=C/C(C)=C/C=C/C(C)=C/C=C/C=C(C)/C=C/C=C(C)/C=C/C=C(\C)CCC=C(C)C [LYCOPENE]

- Kd [2]: 80 µM
Compound: c1ccc(-c2cccc(-c3nn[nH]n3)c2)cc1

From ChEMBL document CHEMBL4680264, “Progress toward a Glycoprotein VI Modulator for the Treatment of Thrombosis” (J Med Chem, 2020)
